The source of these data is ChEMBL document CHEMBL6127065, “Design and Synthesis of c-Met and HDAC Dual Inhibitors for the Treatment of Breast Cancer” (ACS Med Chem Lett, 2024).

Structures are written as SMILES. Calls of active or inactive are those of the source. No cut-off for these calls is given here.

The subject of assay [1] is MDA-MB-231. The assay can be described thus: Induction of apoptosis in human MDA-MB-231 cells assessed as late apoptotic cells at 2.5 uM incubated for 48 hrs by AnnexinV-FITC/PI staining based flow cytometry (reference value: 3.77 to 3.84%). The format is functional. A general note: Flow cytometry measures light scatter and fluorescence of single cells or particles in a stream.

In assay [2] the test system is MDA-MB-231. The assay can be described thus: Induction of apoptosis in human MDA-MB-231 cells assessed as necrotic cells at 2.5 uM incubated for 48 hrs by AnnexinV-FITC/PI staining based flow cytometry (reference value: 1.79 to 2.53%). Type of assay: functional.
Assay [3] concerns MDA-MB-231. Description: Induction of apoptosis in human MDA-MB-231 cells assessed as viable cells at 5 uM incubated for 48 hrs by AnnexinV-FITC/PI staining based flow cytometry (reference value: 91.22 to 92.84%). The format is functional. As to conditions: read-out: Activity.
The subject of assay [4] is MDA-MB-231. The assay can be described thus: Induction of apoptosis in human MDA-MB-231 cells assessed as late apoptotic cells at 5 uM incubated for 48 hrs by AnnexinV-FITC/PI staining based flow cytometry (reference value: 3.77 to 3.84%). Type of assay: functional.
For assay [5], the system named is MDA-MB-231. Description: Induction of apoptosis in human MDA-MB-231 cells assessed as viable cells at 10 uM incubated for 48 hrs by AnnexinV-FITC/PI staining based flow cytometry (reference value: 91.22 to 92.84%). As to conditions: read-out: Activity. Type of assay: functional.
Assay [6] has as its system MDA-MB-231. The assay can be described thus: Induction of apoptosis in human MDA-MB-231 cells assessed as viable cells at 25 uM incubated for 48 hrs by AnnexinV-FITC/PI staining based flow cytometry (reference value: 91.22 to 92.84%). Type of assay: functional. Conditions: read-out: Activity.
For assay [7], the system named is MDA-MB-231. The assay can be described thus: Induction of apoptosis in human MDA-MB-231 cells assessed as late apoptotic cells at 25 uM incubated for 48 hrs by AnnexinV-FITC/PI staining based flow cytometry (reference value: 3.77 to 3.84%). The format is functional.
For assay [8], the system named is MDA-MB-231. The assay can be described thus: Induction of apoptosis in human MDA-MB-231 cells assessed as upregulation of cleaved PARP level at 1 to 25 uM incubated for 48 hrs by western blot analysis. Type of assay: functional, cell-based. As to conditions: dose 1-25 µM.
Assay [9] concerns MDA-MB-231. The assay can be described thus: Induction of apoptosis in human MDA-MB-231 cells assessed as upregulation of cleaved caspase 3 level at 1 to 25 uM incubated for 48 hrs by western blot analysis. Conditions: dose 1-25 µM. Type of assay: functional, cell-based. A general note: Immunoblotting shows a protein as a band on a membrane.
Assay [10] deals with MDA-MB-231. Description: Induction of cell cycle arrest in human MDA-MB-231 cells assessed as accumulation of cells at G0/G1 phase at 10 uM incubated for 48 hrs by PI staining based flow cytometry (reference value: 55.36 to 55.82%). Type of assay: functional.
Assay [11] has as its system MDA-MB-231. The assay can be described thus: Induction of cell cycle arrest in human MDA-MB-231 cells assessed as accumulation of cells at G2/M phase at 10 uM incubated for 48 hrs by PI staining based flow cytometry (reference value: 29.42 to 32.08%). Type of assay: functional.

As to `CC(c1ccc2ncccc2c1)n1nnc2ncc(N3CCN(Cc4ccc(/C=C/C(=O)Nc5ccccc5N)cc4)CC3)nc21` (stereo unspecified), the Activity in the assay with MDA-MB-231 [1] was 6.97%; in the assay on MDA-MB-231 [2], 3.83%; with MDA-MB-231 [4], 6.84%; in the assay on MDA-MB-231 [7], 12.3%; in the assay on MDA-MB-231 [10], 75.71%; in the assay on MDA-MB-231 [11], 16.08%. In addition, the viability at 5 µM in the assay on MDA-MB-231 [3] was found to be 85.5%. Further, in the assay on MDA-MB-231 [5], the viability at 10 µM was found to be 83.1%. The viability at 25 µM in the assay with MDA-MB-231 [6] stood at 82.8%. For the same molecule, the outcome in the assay on MDA-MB-231 [8] and in the assay with MDA-MB-231 [9] was Active.
